According to patent US7160890B2, “Compounds specific to adenosine A3 receptor and uses thereof” (OSI Pharmaceuticals, Inc., priority 1999, dated 2007):

Experiments:
[1] = biological target: human A1 adenosine receptor (Homo sapiens, UniProt P30542); conditions: cited from earlier work
[2] = biological target: T1, human A2a receptor subtype (Homo sapiens, UniProt P29274); experiment: Adenosine 2a receptor subtype competition radioligand binding, [3H]CGS-21680, HEK293 membranes; conditions: Table 13, concentration not given
T1 construct: expressed in transfected cells; host or cells: HEK-293 (Cadus clone #5)
T1 sequence (P29274 whole entry): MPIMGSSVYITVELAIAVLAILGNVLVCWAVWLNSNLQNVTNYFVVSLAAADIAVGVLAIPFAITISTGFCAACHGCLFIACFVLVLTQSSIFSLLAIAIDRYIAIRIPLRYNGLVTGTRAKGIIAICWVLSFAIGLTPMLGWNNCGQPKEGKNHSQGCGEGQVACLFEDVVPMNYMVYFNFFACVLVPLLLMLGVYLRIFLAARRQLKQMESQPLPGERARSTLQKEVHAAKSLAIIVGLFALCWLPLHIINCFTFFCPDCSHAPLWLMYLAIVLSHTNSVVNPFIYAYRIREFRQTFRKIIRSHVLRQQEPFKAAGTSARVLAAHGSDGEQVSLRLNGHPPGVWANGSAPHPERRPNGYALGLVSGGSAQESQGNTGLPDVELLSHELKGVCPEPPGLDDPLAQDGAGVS

[3] = biological target: T2, human A1 receptor subtype (Homo sapiens, UniProt P30542); conditions: Table 13, concentration not given
T2 sequence (P30542 1-326): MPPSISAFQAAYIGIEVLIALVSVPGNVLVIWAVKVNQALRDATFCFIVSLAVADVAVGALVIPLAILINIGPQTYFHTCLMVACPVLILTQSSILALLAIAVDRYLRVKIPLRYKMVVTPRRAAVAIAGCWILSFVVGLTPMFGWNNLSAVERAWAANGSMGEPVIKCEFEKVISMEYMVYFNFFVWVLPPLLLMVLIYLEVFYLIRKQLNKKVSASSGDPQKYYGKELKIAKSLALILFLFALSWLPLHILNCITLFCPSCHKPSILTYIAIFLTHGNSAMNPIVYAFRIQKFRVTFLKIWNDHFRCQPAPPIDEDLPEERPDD

[4] = biological target: T3, human A3 receptor subtype (Homo sapiens, UniProt P0DMS8); experiment: Adenosine 3 receptor competition radioligand binding, [125I]AB-MECA, HEK293 membranes; conditions: compared with compound 1308
T3 construct: expressed in transfected cells; host or cells: HEK293
T3 sequence (P0DMS8 1-318): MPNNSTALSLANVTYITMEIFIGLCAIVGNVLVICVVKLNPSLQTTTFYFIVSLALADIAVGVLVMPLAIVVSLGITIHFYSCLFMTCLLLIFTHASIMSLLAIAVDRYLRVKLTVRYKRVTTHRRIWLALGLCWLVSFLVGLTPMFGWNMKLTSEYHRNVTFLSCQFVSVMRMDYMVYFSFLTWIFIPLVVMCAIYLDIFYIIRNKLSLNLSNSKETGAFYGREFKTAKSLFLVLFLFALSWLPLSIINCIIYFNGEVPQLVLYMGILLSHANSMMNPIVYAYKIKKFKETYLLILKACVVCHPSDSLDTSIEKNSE

SMILES: CC(Cc1ccccc1)Nc1ncnc2c1ncn2[C@@H]1O[C@H](CO)[C@@H](O)[C@H]1O (single isomer, unassigned; (-)) [PIA, (−)-N6-(2-phenylisopropyl)-adenosine]
- reported affinity [1]: approximately 50 nM

SMILES: CNC(=O)NCCCNc1nc(-c2ccccc2)nc2[nH]c(C)c(C)c12 [Compound 1310]
- Binding A2a, value given in % [2]: 76%

SMILES: Cc1[nH]c2nc(-c3ccccc3)nc(NCCNC(=O)C3(N)CC3)c2c1C [Compound 1313]
- Binding A1, value printed in % [3]: 30%

SMILES: c1ccc(-c2nc(NCCc3cnc[nH]3)c3cc[nH]c3n2)cc1 [Compound 1720, [2-(3H-Imidazol-4-yl)-ethyl]-(2-phenyl-7H-pyrrolo[2,3-d]pyrimidin-4-yl)-amine]
- A3 receptor binding affinity relative to reference compound 1308 [4]: greater than 10 times
- melting point: 234 to 235 °C
